Experimental data as given in PMC8197361, “Assessing the Interactions of Statins with Human Adenylate Kinase Isoenzyme 1: Fluorescence and Enzyme Kinetic Studies” (International Journal of Molecular Sciences, 2021).
Where two headings read alike, the source gives them in different places.

Key:
[1] = molecular target: T1, human adenylate kinase isoenzyme 1 (hAK1) (Homo sapiens, UniProt P00568); test: Fluorescence quenching of hAK1 intrinsic (tyrosine) fluorescence by statins, one-site binding model; conditions: read-out: Kd (dissociation constant)
T1 construct: thrombin recognition site (C); 6xHis-tag (C); made in house; host or cells: E. coli BL21-CodonPlus(DE3)-RIL, pET-3a(+)
T1 sequence (P00568 1-194): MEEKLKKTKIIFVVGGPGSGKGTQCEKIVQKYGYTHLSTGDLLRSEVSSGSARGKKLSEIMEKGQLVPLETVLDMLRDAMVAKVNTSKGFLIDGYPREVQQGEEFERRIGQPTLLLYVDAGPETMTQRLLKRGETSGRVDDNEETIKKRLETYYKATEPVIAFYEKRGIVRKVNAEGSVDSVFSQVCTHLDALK
Experimental: The fluorescence emission spectra and plots of F versus [L] for the hAK1 quenching process at 20 and 25 °C are presented in Figure S2, while the emission spectra of hAK1, buffer (HEPES-NaOH) and five statins are shown in Figure S3. To analyze the quenching data upon the formation of an hAK1-statin complex, we used the following equation, which assumes a 1:1 stoichiomery:(1) PL/Pt=Pt+La+Kd−(Pt+La+Kd)^2−4PtLa/2Pt where Kd is the dissociation constant, [P]t is the concentration of protein, [L]a is the total concentration of the ligand, and [PL] it the concentration of protein-ligand complex.
The obtained fluorescence data were fitted to the one-site binding model with an applied nonlinear least-squares regression using OriginPro software (Figure 3).
Measurements were recorded in the range of 300–600 nm after excitation at λ = 289 nm at 20, 25 and 37 °C. Stock solutions of all statins were prepared in ethanol. The samples were prepared in 2 mL Eppendorf tubes and contained hAK1 at a concentration of 2 µM alone or with a statin at the following concentrations: 2, 4, 8, 16, 24, 32 and 40 µM, and 25 mM HEPES-NaOH (pH 7.5) was added to each tube, up to 2 mL. Then, the sample was transferred into the quartz cell and the spectrum was recorded. The emission spectra were measured three times. The fluorescence spectra of hAK1 in presence of statins were corrected for the inner filter effect using the following equation [63, 64]:(2) Fcor=Fobs∗ 10^AλEx+AλEm/2 where Fcor is the corrected fluorescence intensity and Fobs is the observed fluorescence intensity, AλEx is the absorption value at the excitation wavelength and AλEm is the absorption value at the emission wavelength. The fluorescence data were fitted by applying a nonlinear least-squares regression using OriginPro software Version 2016 (OriginLab Corporation, Northampton, MA, USA).

[2] = molecular target: T1, human adenylate kinase isoenzyme 1 (hAK1); test: Adenylate kinase activity assay and enzyme inhibition studies (RP-HPLC), hAK1; type: biochemical; conditions: for IC50: 37 °C
Experimental: The reaction mixture for ATP synthesis contained 2 mM MgCl2, 1 mM ADP in 10 mM HEPES-NaOH, pH 7.5. The reaction mixture for ADP synthesis was composed of 2 mM MgCl2, 1 mM AMP and ATP each, in 10 mM HEPES-NaOH, pH 7.5. […] Studies on the statin inhibition mode were performed using varying concentrations of ADP as a substrate (from 0.2 to 1.0 mM) at different fixed concentrations of statin (0, 150, 300 and 450 µM). Adenylate kinase activity measurement was carried out in 50 μL of the reaction mixture for 5–10 min at 37 °C. The reaction was terminated by the addition of 50 μL of 1 M HClO4. After 5 min incubation on ice, samples were centrifuged at 15,000× g for 5 min at 4 °C. Then, 50 μL of the obtained supernatant was neutralized with 25 μL of 1 M KOH and delipidated by shaking with n-heptane (1:5 v/v). The samples were centrifuged as above, and subsequently, adenine nucleotide concentrations were analyzed by the RP-HPLC (reversed-phase high-performance liquid chromatography) method as previously described. Briefly, purine nucleotides were separated in isocratic conditions on the Chromolith Performance RP-18e column, 4.6 mm × 100 mm (Merck, Darmstadt, Germany) using the Shimadzu Prominence LC (Kyoto, Japan) equipped with pump (LC-20AD), autosampler (SIL-20AC), column thermostat (CTO-10AS) and photodiode array detector (SPD-M20A). HPLC system control, data acquisitions and processing were done with LabSolutions software. The samples were eluted using 0.1 M phosphate buffer, pH 7.0 containing 25 mM TBA, 5 mM EDTA and 3% methanol. ADP and ATP produced during the AK-catalyzed reaction were detected at λ = 260 nm based on the retention times of standard nucleotide solutions. The AK enzymatic activity was determined by quantifying the product concentration using correlation coefficients calculated from ADP and ATP calibration curves. One unit (U) of AK activity is defined as the amount of the enzyme that catalyzes the production of 1.0 μmole of ADP or ATP per minute at 37 °C, under the assay conditions specified above. The specific activity of AK was calculated as the number of units per milligram of protein. The Lineweaver–Burk plot was used to present enzyme-substrate reactions with and without statin, where the y-intercept is equivalent to the inverse of Vmax and the x-intercept represents −1/KM. The calculation of the IC50 values was performed using GraphPad Prism 8 Software (San Diego, CA, USA).

serum AK = test system: serum AK; parameters: method as in PMID 18576946; conditions: 0.5 mM AMP and 0.8 mM ATP as substrates; cited from earlier work
[3] = test system: endothelial cell-surface AK; parameters: method as in PMID 18576946; conditions: 0.5 mM AMP and 0.8 mM ATP as substrates; cited from earlier work
[4] = molecular target: T2, adenylate kinase from Geobacillus stearothermophilus (AKst) (Geobacillus stearothermophilus, UniProt P27142); test: Adenylate kinase activity assay in the presence of statins, AKst (long type AK); type: biochemical; conditions: same drug concentration range as in hAK1 experiments; ADP or ATP and AMP as substrates, 1 mM each
T2 construct: made in house; host or cells: E. coli BL21-CodonPlus(DE3)-RIL, pET-3a(+)
Experimental: Next, we measured the enzymatic activity of AKst in the presence of RVS and SVS at the same drug concentration range as in the hAK1 experiments (Figure S4). […] This region has limited accessibility in AKst due to the presence of a markedly bigger LID domain as compared to hAK1, which may consequently prevent the binding of statins to AKst.
The reaction mixture for ATP synthesis contained 2 mM MgCl2, 1 mM ADP in 10 mM HEPES-NaOH, pH 7.5. The reaction mixture for ADP synthesis was composed of 2 mM MgCl2, 1 mM AMP and ATP each, in 10 mM HEPES-NaOH, pH 7.5. […] Studies on the statin inhibition mode were performed using varying concentrations of ADP as a substrate (from 0.2 to 1.0 mM) at different fixed concentrations of statin (0, 150, 300 and 450 µM). […] The samples were centrifuged as above, and subsequently, adenine nucleotide concentrations were analyzed by the RP-HPLC (reversed-phase high-performance liquid chromatography) method as previously described. […] ADP and ATP produced during the AK-catalyzed reaction were detected at λ = 260 nm based on the retention times of standard nucleotide solutions. The AK enzymatic activity was determined by quantifying the product concentration using correlation coefficients calculated from ADP and ATP calibration curves. […] The specific activity of AK was calculated as the number of units per milligram of protein. […]

[5] = 20 °C, 2 µM hAK1, 25 mM HEPES-NaOH pH 7.5
[6] = 25 °C, 2 µM hAK1, 25 mM HEPES-NaOH pH 7.5
[7] = 37 °C, 2 µM hAK1, 25 mM HEPES-NaOH pH 7.5
[8] = 1 mM ADP, ATP synthesis direction, read-out: IC50 (ADP as a Substrate)
[9] = 1 mM AMP and ATP each, ADP synthesis direction, read-out: IC50 (ATP + AMP as Substrates)

T2 sequence (P27142 whole entry): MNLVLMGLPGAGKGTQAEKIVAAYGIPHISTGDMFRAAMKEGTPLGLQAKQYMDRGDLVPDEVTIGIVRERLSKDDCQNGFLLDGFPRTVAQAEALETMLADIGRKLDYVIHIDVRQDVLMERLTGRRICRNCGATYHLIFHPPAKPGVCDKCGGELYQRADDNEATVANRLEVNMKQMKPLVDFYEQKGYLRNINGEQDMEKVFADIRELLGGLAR

| Structure (SMILES) | Kd [1, 5] | Kd [1, 6] | Kd [1, 7] | IC50 [2, 8] | IC50 [2, 9] | IC50 ([2]; ADP or ATP + AMP as substrates, read-out: IC50 values in both directions of the hAK1-catalyzed reaction) | IC50 (serum AK) | IC50 [3] | hAK1 inhibition mode (Lineweaver-Burk plot) ([2]; ADP 0.2 to 1.0 mM, fixed statin concentrations 0, 150, 300 and 450 µM) | hAK1 inhibition ([2]; RVS at a concentration above 200 μM) | Effect on the AKst enzymatic activity [4] | Kd ([1]; 37 °C) |
| --- | --- | --- | --- | --- | --- | --- | --- | --- | --- | --- | --- | --- |
| Nc1ncnc2c1ncn2[C@@H]1O[C@H](COP(=O)(O)OP(=O)(O)OP(=O)(O)OP(=O)(O)OP(=O)(O)OC[C@H]2O[C@@H](n3cnc4c(N)ncnc43)[C@H](O)[C@@H]2O)[C@@H](O)[C@H]1O [Ap5A, P^1,P^5-di(adenosine-5′)pentaphosphate] | – | – | – | – | – | – | 6.3 µM | 6 µM | – | – | – | – |
| CC[C@H](C)C(=O)O[C@H]1C[C@H](O)C=C2C=C[C@H](C)[C@H](CC[C@@H](O)C[C@@H](O)CC(=O)O)[C@H]21 [PVS, Pravastatin] | 19.4 ± 4.1 µM | 26.4 ± 6.2 µM | 28.6 ± 8.2 µM | 95 ± 19 µM | 211 ± 33 µM | – | – | – | – | – | – | – |
| CC(C)c1nc(N(C)S(C)(=O)=O)nc(-c2ccc(F)cc2)c1/C=C/[C@@H](O)C[C@@H](O)CC(=O)O [RVS, Rosuvastatin] | 9.2 ± 1.5 µM | 16.8 ± 1.8 µM | 18.9 ± 3.2 µM | 166 ± 20 µM | 89 ± 15 µM | – | – | – | noncompetitive | 90% | not found any inhibitory effect | – |
| CCC(C)(C)C(=O)O[C@H]1C[C@@H](C)C=C2C=C[C@H](C)[C@H](CC[C@@H]3C[C@@H](O)CC(=O)O3)[C@H]21 [SVS, Simvastatin] | 6.6 ± 1.2 µM | 10.9 ± 1.6 µM | 15.2 ± 2 µM | 5.5 ± 1.2 µM | 3.1 ± 0.5 µM | – | – | – | – | – | not found any inhibitory effect | 15.2 ± 2 µM |

The next lines start with results.

| Kd [1, 5] | Kd [1, 6] | Kd [1, 7] | IC50 [2, 8] | IC50 [2, 9] | IC50 ([2]; ADP or ATP + AMP as substrates, read-out: IC50 values in both directions of the hAK1-catalyzed reaction) | Structure (SMILES) | IC50 (serum AK) | IC50 [3] | hAK1 inhibition mode (Lineweaver-Burk plot) ([2]; ADP 0.2 to 1.0 mM, fixed statin concentrations 0, 150, 300 and 450 µM) | hAK1 inhibition ([2]; RVS at a concentration above 200 μM) | Effect on the AKst enzymatic activity [4] | Kd ([1]; 37 °C) |
| --- | --- | --- | --- | --- | --- | --- | --- | --- | --- | --- | --- | --- |
| 16 ± 2.1 µM | 27.2 ± 6.8 µM | 29.5 ± 3.7 µM | 223 ± 34 µM | 237 ± 31 µM | > 200 µM | CC(C)c1c(C(=O)Nc2ccccc2)c(-c2ccccc2)c(-c2ccc(F)cc2)n1CC[C@@H](O)C[C@@H](O)CC(=O)O [AVS, Atorvastatin] | – | – | – | – | – | – |
| 17.4 ± 2 µM | 23.1 ± 4 µM | 26.6 ± 5.5 µM | 126 ± 7 µM | 156 ± 11 µM | – | CC(C)n1c(/C=C/C(O)CC(O)CC(=O)O)c(-c2ccc(F)cc2)c2ccccc21 (stereo not drawn) [FVS, Fluvastatin] | – | – | – | – | – | – |
